The values below come from patent publication US20240269095A1, “Rapid Onset Therapeutic Ketosis Enabled by D-BetaHydroxyButyric Acid Systems, Compounds and Methods for Stroke medication co-administration” (American Ketone Therapeutics LLC, priority 2022, published 2024).

Data set [1] in a line: Blood ketone level by Abbott blood ketone meter / test strip after oral free D-BHB. The format is in vivo, human. The text has this:
FIG. 9 is a graphical illustration of D-BHB exogenous ketone blood levels. The above Abbot blood ketone meter evidenced by Abbott blood test strip depicts the rapid rise in blood ketone levels from 0.1 mmol/L (absence of ketosis) to 2.7 mmol/L (ketosis) after oral bolus administration of 15 grams of bioidentical free D-BetaHydroxyButyric Acid. The ketone levels depicted are attained in the absence of a salt as well as without ester bonds. It is the free acid D-BHB exogenously administered which is bio-identical to the endogenous D-BHB free acid generated by the human body. The bioidentical ketone body D-BHB is first and foremost an energy source, which is directly and preferentially metabolized by the brain. D-BHB is also active as a signaling mechanism and neuro-inflammation reduction agent, resulting in broad and beneficial brain bioenergy related benefits.
FIG. 10 is a graphical illustration of D-BHB exogenous ketone blood levels. FIG. 10 details rapid ketosis within 45 minutes confirmed by Abbott blood test strip after 10 g D-BHB with palatability agent administered by oral drink. Blood ketone levels document rise from 0.2 mmol/L to 1.8 mmol/L and 0.6 mmol/L to 1.9 mmol/L in a variety of test subjects. FIG. 10 reinforces the fact that supplementation by utilizing free D only BetaHydroxyButyric Acid without ketone salt or ketone ester is a reliable, reproducible method and system for rapid ketone level increase for stroke recovery and maintenance. While amounts of free D only BetaHydroxyButyric Acid taken for stroke effects may vary, it is an anticipated preferred embodiment that levels between 5 and 30 grams of D only BetaHydroxyButyric Acid are taken as needed for optimum recovery. Alternate embodiments may include lower or higher amounts, however, experimental evidence has confirmed optimal administration in this range for a wide variety of other applications.

Data set [2] can be described thus: Stated properties of free D-BHB (Table 1). The arrangement: species or system human.
A short description of data set [3]: Continuous Ketone Meter (CKM) monitoring of body ketone levels and deep sleep. The data set is classed as in vivo, human. The settings on record: 5 grams consumed 45 minutes prior to bedtime. The text has this:
FIG. 12 is a graphical illustration of continuous monitoring of body ketone levels resulting in improved deep sleep time due to enhanced D-BHB levels according to the claimed invention. It is noteworthy that consumption of even small amounts of free D-BetaHydroxy Butyric Acid can give rise to therapeutic ketosis levels as measured by Continuous Ketone Meter (CKM). […] While free D-BetaHydroxyButyric Acid is not a sedative, even small amounts can greatly improve deep sleep quantity and quality. It is an intended and foreseeable embodiment application to increase deep sleep with free D-BetaHydroxyButyric Acid with the aim of improving stroke recovery and enhanced brain resiliency.

Data set [4] in a line: Continuous glucose monitoring (Abbot Libre CGM) with carbohydrate challenge. The conditions noted are these: 10 g given 45 minutes before 50 g carbohydrate ingestion; compared with unsupplemented ingestion. The format is in vivo, human. The text has this:
FIG. 11 is a graphical illustration of continuous monitoring of body glucose levels. FIG. 11 depicts continuous glucose monitoring levels with carbohydrate challenge documented by Abbot Libre Continuous Glucose Monitoring (CGM) device. In this illustrative embodiment, glucose levels from a 50 g carbohydrate ingestion are depicted unaided by free D-BetaHydroxyButyric Acid on the left and repeated the following day with two 50 g carbohydrate ingestions accompanied by 10 g free D-BetaHydroxyButyric Acid administered 45 minutes before the carbohydrate insult. […] As free D-BetaHydroxyButyric Acid can lower glucose while rapidly increasing ketone levels, it is believed that obtaining high ketones while lowering glucose will yield additional stroke recovery benefits for high glucose sensitive individuals suffering from stroke.

The conditions of data set [5]: compared with ketone salts, literature table; cited from earlier work.

In data set [1] (10 g D-BHB with palatability agent by oral drink), `C[C@@H](O)CC(=O)O` [free D-BetaHydroxyButyric Acid, D-β-HydroxyButyric Acid] registered a time to ketosis of at most 45 min. Further, in data set [1] (10 g with palatability agent by oral drink, test subject rising from 0.2 mmol/L), the “blood ketone level after administration” value turned out to be 1.8 mmol/L. Moreover, the “blood ketone level after administration” value in data set [1] (10 g with palatability agent by oral drink, test subject rising from 0.6 mmol/L) worked out at 1.9 mmol/L. In data set [1] (oral bolus of 15 grams, rise from 0.1 mmol/L (absence of ketosis)), the “blood ketone level after administration” value came out at 2.7 mmol/L. For the same compound, in data set [2], the “Induces Ketoacidosis” value is “Induces Ketoacidosis: No” and the Metabolism entry is “Metabolism: Rapid, minutes”. For the same compound, in data set [3], the deep sleep quantity entry is given as “enhance the quantity of deep sleep obtained” and the “increase in ketone level (CKM)” value amounted to 1.5 mmol/L. Besides, the “glucose spike after carbohydrate ingestion” value in data set [4] is reported as “rapid glucose spike depicted in the unsupplemented ingestion is not found”.

As to `C[C@@H](O)CCOC(=O)C[C@@H](C)O` [ketone ester, (R)-3-hydroxybutyl (R)-3-hydroxybutyrate], the ketone level response entry in data set [5] is reported as “higher ketone level response”.
